This is an account of results in PubChem BioAssay AID1918931 (Molecular Pharmacology Branch, DTP, NCI, 2023).

Structures are written as SMILES. Several values for one entry are separate records, joined by “and”; a condition that tells them apart may be missing. Identical values can stand only once.

The IC50 is the point on the concentration scale where inhibition reaches its midpoint. Usually viability, T/C stands for the ratio of treated to control.

The test system of this assay is 138582-337-R-J1-PDC complex spheroid viability. Nature of the assay: Anticancer human tumor 138582-337-R-J1-PDC patient-derived Merkel cell tumor cell line growth inhibition. The conditions noted are these: for viability, T/C: stronger effect = lower value. Put shortly:
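Multicellular complex spheroids of tumor cells with human endothelial cells (HUVEC) and mesenchymal stem cells; the LSD1 inhibitor iadademstat was combined with standard-of-care or investigational agents. Top concentration at or near clinical Cmax, half-log dilutions; final DMSO ≤0.25%.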

[1] abbreviates: curve of first compound, second compound 0.1 µM.
[2] abbreviates: curve of first compound, second compound 0.316 µM.
The mark [3] stands for this setting: curve of first compound, second compound 1 µM.
[4] abbreviates: curve of first compound, second compound 3.16 µM.
The mark [5] stands for this setting: curve of first compound, second compound 10 µM.
Setting [6] is: second compound 0.1 µM, first compound 0.00949 µM.
Where [7] appears, read: second compound 0.1 µM, first compound 0.03 µM.
The mark [8] stands for this setting: second compound 0.1 µM, first compound 0.0949 µM.
[9] abbreviates: second compound 0.1 µM, first compound 0.3 µM.
The mark [10] stands for this setting: second compound 0.1 µM, first compound 0.949 µM.
[11] abbreviates: second compound 0.1 µM, first compound 3 µM.
Setting [12] is: second compound 0.316 µM, first compound 0.00949 µM.
[13] abbreviates: second compound 0.316 µM, first compound 0.03 µM.
[14] abbreviates: second compound 0.316 µM, first compound 0.0949 µM.
Where [15] appears, read: second compound 0.316 µM, first compound 0.3 µM.
[16] abbreviates: second compound 0.316 µM, first compound 0.949 µM.
[17] abbreviates: second compound 0.316 µM, first compound 3 µM.
Setting [18] is: second compound 1 µM, first compound 0.00949 µM.
Where [19] appears, read: second compound 1 µM, first compound 0.03 µM.
Where [20] appears, read: second compound 1 µM, first compound 0.0949 µM.
Setting [21] is: second compound 1 µM, first compound 0.3 µM.
Where [22] appears, read: second compound 1 µM, first compound 0.949 µM.
The mark [23] stands for this setting: second compound 1 µM, first compound 3 µM.
Where [24] appears, read: second compound 3.16 µM, first compound 0.00949 µM.
The mark [25] stands for this setting: second compound 3.16 µM, first compound 0.03 µM.
Where [26] appears, read: second compound 3.16 µM, first compound 0.0949 µM.
Where [27] appears, read: second compound 3.16 µM, first compound 0.3 µM.
Where [28] appears, read: second compound 3.16 µM, first compound 0.949 µM.
[29] abbreviates: second compound 3.16 µM, first compound 3 µM.
[30] abbreviates: second compound 10 µM, first compound 0.00949 µM.
[31] abbreviates: second compound 10 µM, first compound 0.03 µM.
Where [32] appears, read: second compound 10 µM, first compound 0.0949 µM.
[33] abbreviates: second compound 10 µM, first compound 0.3 µM.
Where [34] appears, read: second compound 10 µM, first compound 0.949 µM.
Where [35] appears, read: second compound 10 µM, first compound 3 µM.
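Also: spheroids exposed to agents for 7 days.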
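For viability, T/C in this document: 100% = DMSO vehicle control viability.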

As to `CCN(c1cc(-c2ccc(CN3CCOCC3)cc2)cc(C(=O)NCc2c(C)cc(C)[nH]c2=O)c1C)C1CCOCC1` + NC1CCC(NC2CC2c2ccccc2)CC1, the IC50 is, setting by setting: under setting [1], more than 3 µM; under setting [2], more than 3 µM; under setting [3], more than 3 µM; under setting [4], more than 3 µM; under setting [5], more than 3 µM. Further, the viability, T/C by setting is: under setting [6], 101%; under setting [7], 87.9%; under setting [8], 109%; under setting [9], 92.4%; under setting [10], 106%; under setting [11], 111%. The viability, T/C was 101% under setting [12]; 101% under setting [13]; 91% under setting [14]; 95.3% under setting [15]; 124% under setting [16]; 105% under setting [17]. The viability, T/C is 98.6% under setting [18]; 106% under setting [19]; 98.2% under setting [20]; 90.3% under setting [21]; 97.7% under setting [22]; 103% under setting [23]. The viability, T/C reads like this: under setting [24], 99.2%; under setting [25], 103%; under setting [26], 90.6%; under setting [27], 92.3%; under setting [28], 110%; under setting [29], 105%. The viability, T/C was 88.9% under setting [30]; 86.7% under setting [31]; 82.2% under setting [32]; 90.9% under setting [33]; 84.9% under setting [34]; 84.8% under setting [35].

In the case of `CC(C)c1c(-c2ccccc2)nc2c(C#N)c[nH]n2c1=O` + NC1CC1c1ccc(-c2cccc(O)c2)cc1, the concentration for half-maximal inhibition (IC50) by setting is: under setting [1], 6.25 µM; under setting [2], 4.4 µM; under setting [3], 4.91 µM; under setting [4], 2.53 µM; under setting [5], more than 10 µM. The viability, T/C was 69.5% (second compound 0.1 µM, first compound 0.0316 µM); 76.3% (second compound 0.1 µM, first compound 0.1 µM); 66.6% (second compound 0.1 µM, first compound 0.316 µM); 62.1% (second compound 0.1 µM, first compound 1 µM); 54.4% (second compound 0.1 µM, first compound 3.16 µM); 46.9% (second compound 0.1 µM, first compound 10 µM). In addition, the viability, T/C is, setting by setting: (second compound 0.316 µM, first compound 0.0316 µM) 69.1%; (second compound 0.316 µM, first compound 0.1 µM) 73.5%; (second compound 0.316 µM, first compound 0.316 µM) 71.2%; (second compound 0.316 µM, first compound 1 µM) 67.6%; (second compound 0.316 µM, first compound 3.16 µM) 54.7%; (second compound 0.316 µM, first compound 10 µM) 38.5%. The viability, T/C by setting is: (second compound 1 µM, first compound 0.0316 µM) 76.1%; (second compound 1 µM, first compound 0.1 µM) 68.8%; (second compound 1 µM, first compound 0.316 µM) 82%; (second compound 1 µM, first compound 1 µM) 70.2%; (second compound 1 µM, first compound 3.16 µM) 57.5%; (second compound 1 µM, first compound 10 µM) 38.2%. For the same compound, the viability, T/C reads like this: (second compound 3.16 µM, first compound 0.0316 µM) 85.7%; (second compound 3.16 µM, first compound 0.1 µM) 78.6%; (second compound 3.16 µM, first compound 0.316 µM) 68.6%; (second compound 3.16 µM, first compound 1 µM) 55.9%; (second compound 3.16 µM, first compound 3.16 µM) 50.1%; (second compound 3.16 µM, first compound 10 µM) 38.5%. Also, the viability, T/C runs as follows: (second compound 10 µM, first compound 0.0316 µM) 85.7%; (second compound 10 µM, first compound 0.1 µM) 90.9%; (second compound 10 µM, first compound 0.316 µM) 84.9%; (second compound 10 µM, first compound 1 µM) 73.9%; (second compound 10 µM, first compound 3.16 µM) 61.1%; (second compound 10 µM, first compound 10 µM) 51.6%.

Consider `CC(C)CC(NC(=O)CNC(=O)c1cc(Cl)ccc1Cl)B1OC(=O)CC(CC(=O)O)(C(=O)O)O1` (configuration not stated), for which the viability, T/C is 105% and 94.4% (compound 0.000316 µM); 102% and 99.3% (compound 0.001 µM); 110% and 91.3% (compound 0.00316 µM); 30.4% and 42.1% (compound 0.01 µM); 4.94% and 1.75% (compound 0.0316 µM); 0.38% and 0.44% (compound 0.1 µM). The IC50 (curve of compound) is 0.00741 µM and 0.0083 µM.

On to `O=C(C=Cc1cccc(S(=O)(=O)Nc2ccccc2)c1)NO`, for which the viability, T/C is 96.1% and 76.4% (compound 0.00949 µM); 91.5% and 67.6% (compound 0.03 µM); 90% and 49.2% (compound 0.0949 µM); 73.3% and 23.6% (compound 0.3 µM); 36% and 0.96% (compound 0.949 µM). Also, the IC50 (curve of compound) was 0.616 µM and 0.0844 µM.

In the case of `CCN(c1cc(-c2ccc(CN3CCOCC3)cc2)cc(C(=O)NCc2c(C)cc(C)[nH]c2=O)c1C)C1CCOCC1` + NC1CC1c1ccc(-c2cccc(O)c2)cc1, the IC50 runs as follows: under setting [1], more than 3 µM; under setting [2], more than 3 µM; under setting [3], more than 3 µM; under setting [4], more than 3 µM; under setting [5], more than 3 µM. In addition, the viability, T/C is 76.8% under setting [6]; 69.5% under setting [7]; 53.6% under setting [8]; 59.3% under setting [9]; 66.9% under setting [10]; 64.6% under setting [11]. Besides, the viability, T/C by setting is: under setting [12], 80.8%; under setting [13], 81%; under setting [14], 77.9%; under setting [15], 66.6%; under setting [16], 59%; under setting [17], 67.1%. Moreover, the viability, T/C runs as follows: under setting [18], 78.3%; under setting [19], 72.7%; under setting [20], 77.1%; under setting [21], 66.8%; under setting [22], 64.7%; under setting [23], 60.5%. In addition, the viability, T/C was 75.8% under setting [24]; 84.9% under setting [25]; 82% under setting [26]; 75.2% under setting [27]; 59.4% under setting [28]; 66.9% under setting [29]. The viability, T/C is 63.7% under setting [30]; 91.8% under setting [31]; 74% under setting [32]; 80.3% under setting [33]; 61.4% under setting [34]; 72.4% under setting [35].

For `CC(C)c1c(-c2ccccc2)nc2c(C#N)c[nH]n2c1=O`, the viability, T/C is, setting by setting: (compound 0.0316 µM) 106% and 89.1%; (compound 0.1 µM) 92.4% and 85.5%; (compound 0.316 µM) 92.8% and 89.8%; (compound 1 µM) 97.1% and 71.4%; (compound 3.16 µM) 84.7% and 52.7%; (compound 10 µM) 85.2% and 40.5%. The IC50 (curve of compound) was > 10 µM and 3.7 µM.

As to `NS(=O)(=O)OCC1CC(n2ccc3c(NC4CCc5ccccc54)ncnc32)CC1O` (configuration not stated), the viability, T/C is 96% and 74.9% (compound 0.00949 µM); 104% and 63.2% (compound 0.03 µM); 93.9% and 50.6% (compound 0.0949 µM); 67.3% and 30.4% (compound 0.3 µM); 28% and 26.4% (compound 0.949 µM); 27.5% and 32.5% (compound 3 µM). The IC50 (curve of compound) was 0.504 µM and 0.082 µM.
